Source: patent EP4534542A1, “THIOSUGAR BASED ISOTHIOCYANATES AND USES THEREOF” (Universidad de Sevilla, priority 2023, dated 2025)
Read-outs that look alike come from different tables or passages of the source.

Columns and labels:
[1] = tested on: MeWo (human melanoma cells); assay: Cell viability assay (resazurin), cytotoxic activity against solid tumours; format: cell-based; conditions: for IC50: read-out: IC50 MeWo (Melanoma; BRAF WT); for S.I. MeWo (Selectivity Index): IC50 HaCaT divided by IC50 MeWo, mean of independent experiments
Method: (§1) Cells were grown in Dulbecco's Modified Eagle's Medium (DMEM) supplemented with 100 U/mL penicillin, 100 µg/mL streptomycin and 10% fetal bovine serum. HL60 cell line (acute myeloid leukaemia, AML) was obtained from ATCC. It was cultured in IMDM medium supplemented with 100 U/mL penicillin, 100 µg/mL streptomycin and 10% fetal bovine serum. U937 (AML) and Jurkat cells (ALL) were obtained from DMSZ, Braunschweig, Germany, and ATCC, respectively. They were cultivated in RPMI medium, supplemented with 100 U/mL penicillin, 100 µg/mL streptomycin and 10% fetal bovine serum. […] All cell lines were cultured at 37 ° C with 5% CO2 in a humidified incubator. Cell culture reagents were purchased from Biowest. Exponentially growing cells (3000-6000 cells per well) were seeded in 96-well plates. After 24 hours, cells were treated with the drugs for 72 hours. The cell viability was then estimated with the resazurin assay, a colorimetric technique based on the capability of viable cells to reduce the blue reagent resazurin to the pink-soluble product resorufin. The amount of resorufin produced is proportional to the number of viable cells. Briefly, cells were washed once with phosphate buffered saline (PBS) and 150 µL resazurin (20 µg/mL in medium) was added to each well. […] Cell viability was calculated as a percentage compared to non-treated cells. The results were expressed as the means ± standard error of the mean (SEM). All data are from at least three independent experiments. The selectivity index (S.I.) values were calculated over each cancer cell line as the mean of the IC50 value in the non-malignant cell line (HaCaT) by the IC50 in the respective cancer cell line obtained in each independent experiment.

[2] = tested on: A549 (human lung adenocarcinoma cells); assay: as above; format: cell-based; conditions: for IC50: read-out: IC50 A549 (Lung adenocarcino ma); for S.I. A549 (Selectivity Index): IC50 HaCaT divided by IC50 A549, mean of independent experiments
Method: as §1

[3] = tested on: T24 (human bladder cancer cells); assay: as above; format: cell-based; conditions: for IC50: read-out: IC50 T24 (Bladder cancer); for S.I. T24 (Selectivity Index): IC50 HaCaT divided by IC50 T24, mean of independent experiments
Method: as §1

HaCaT cells = assay: Cell viability assay (resazurin), cytotoxicity in non-malignant cells; format: cell-based, human; conditions: read-out: IC50 HaCaT (Non-malignant keratinocyte)
Method: Cells were grown in Dulbecco's Modified Eagle's Medium (DMEM) supplemented with 100 U/mL penicillin, 100 µg/mL streptomycin and 10% fetal bovine serum. HL60 cell line (acute myeloid leukaemia, AML) was obtained from ATCC. It was cultured in IMDM medium supplemented with 100 U/mL penicillin, 100 µg/mL streptomycin and 10% fetal bovine serum. U937 (AML) and Jurkat cells (ALL) were obtained from DMSZ, Braunschweig, Germany, and ATCC, respectively. They were cultivated in RPMI medium, supplemented with 100 U/mL penicillin, 100 µg/mL streptomycin and 10% fetal bovine serum. […] All cell lines were cultured at 37 ° C with 5% CO2 in a humidified incubator. Cell culture reagents were purchased from Biowest. Exponentially growing cells (3000-6000 cells per well) were seeded in 96-well plates. After 24 hours, cells were treated with the drugs for 72 hours. The cell viability was then estimated with the resazurin assay, a colorimetric technique based on the capability of viable cells to reduce the blue reagent resazurin to the pink-soluble product resorufin. The amount of resorufin produced is proportional to the number of viable cells. Briefly, cells were washed once with phosphate buffered saline (PBS) and 150 µL resazurin (20 µg/mL in medium) was added to each well. The plates were incubated for 3 hours at 37 °C, 5% CO2, and finally optical densities were measured at 540 and 620 nm with a multiwell plate spectrophotometer reader (Multiskan EX Labsystems). Cell viability was calculated as a percentage compared to non-treated cells. The results were expressed as the means ± standard error of the mean (SEM). All data are from at least three independent experiments.

OPM-2 (Multiple myeloma) = assay: Antileukemic activity, cell viability (CCK-8 Cell Counting Kit); format: cell-based; conditions: Homo sapiens, 18 h incubation, compounds 0 - 100 µM, read-out: IC50 Cancer cells OPM-2 (Multiple myeloma)
Method: (§2) HaCaT cells (human keratinocytes, reference control), A549 (human lung adenocarcinoma cells), MeWo (human melanoma cells) and T24 (human bladder cancer cells) were purchased from Cell Lines Service (CLS). Cells were grown in Dulbecco's Modified Eagle's Medium (DMEM) supplemented with 100 U/mL penicillin, 100 µg/mL streptomycin and 10% fetal bovine serum. HL60 cell line (acute myeloid leukaemia, AML) was obtained from ATCC. It was cultured in IMDM medium supplemented with 100 U/mL penicillin, 100 µg/mL streptomycin and 10% fetal bovine serum. U937 (AML) and Jurkat cells (ALL) were obtained from DMSZ, Braunschweig, Germany, and ATCC, respectively. They were cultivated in RPMI medium, supplemented with 100 U/mL penicillin, 100 µg/mL streptomycin and 10% fetal bovine serum. OPM-2 cell line (MM), was obtained from DMSZ, Braunschweig, Germany and cultured in RPMI medium supplemented with 100 U/mL penicillin, 100 µg/mL streptomycin, 10% fetal bovine serum and 1X GlutaMAXTM. All cell lines were cultured at 37 ° C with 5% CO2 in a humidified incubator. Cell culture reagents were purchased from Biowest.
(§3) For the leukemic cell lines, the CCK-8 Cell Counting Kit (Dojindo Molecular Technologies) was used according to manufacturers instructions. Briefly, 50.000 cells were seeded in each well of a 96 well plate, and they were treated with increased amounts (0 - 100 µM) of each of the compounds, and incubated for 18 h at 37 °C, 5% CO2. After this period, 7 µl of the CCK-8 reagent were added to each well, and cells were further incubated for 2 h at 37 °C, 5% CO2. OD at 450 nm was obtained using a MultiskanTM GO microplate reader (Thermo Fisher Scientific, Waltham, MA, EE.UU). Cell viability in each condition was normalized to the measurement obtained in the non treated samples (100%), and were represented as average ± standard error of the mean (SEM).

[4] = tested on: HL60 (Acute myeloid leukaemia); assay: as above; format: cell-based; conditions: Homo sapiens, HL-60; 18 h incubation, compounds 0 - 100 µM; read-out: IC50 Cancer cells HL60 (Acute myeloid leukaemia)
Method: as §2, §3

[5] = tested on: Jurkat (Acute lymphoblastic leukaemia); assay: as above; format: cell-based; conditions: Homo sapiens, 18 h incubation, compounds 0 - 100 µM, read-out: IC50 Cancer cells Jurkat (Acute lymphoblastic leukaemia)
Method: as §2, §3

[6] = tested on: U937 (Acute myeloid leukaemia); assay: as above; format: cell-based; conditions: Homo sapiens, U-937; 18 h incubation, compounds 0 - 100 µM; read-out: IC50 Cancer cells U937 (Acute myeloid leukaemia)
Method: as §2, §3

[7] = Homo sapiens, MeWo, 72 h treatment, resazurin assay, mean ± SEM
[8] = Homo sapiens, A549, 72 h treatment, resazurin assay, mean ± SEM
[9] = Homo sapiens, 72 h treatment, resazurin assay, mean ± SEM
[10] = Homo sapiens, HaCaT, 72 h treatment, resazurin assay, mean ± SEM
[11] = 72 h treatment, resazurin assay, mean ± SEM

| Structure (SMILES) | IC50 [1, 7] | S.I. MeWo (Selectivity Index) [1] | IC50 [2, 8] | S.I. A549 (Selectivity Index) [2] | IC50 [3, 9] | S.I. T24 (Selectivity Index) [3] | IC50 (HaCaT cells; [10]) | IC50 [1, 11] | IC50 [2, 11] | IC50 [3, 11] | IC50 (HaCaT cells; [11]) | IC50 ([1]; Homo sapiens, MeWo, 72 h) | IC50 ([2]; Homo sapiens, A549, 72 h) | IC50 ([3]; Homo sapiens, 72 h) | IC50 (HaCaT cells; Homo sapiens, HaCaT, 72 h) | IC50 (OPM-2 (Multiple myeloma)) | IC50 [4] | IC50 [5] | IC50 [6] |
| --- | --- | --- | --- | --- | --- | --- | --- | --- | --- | --- | --- | --- | --- | --- | --- | --- | --- | --- | --- |
| C[S+]([O-])CCCCN=C=S (stereo not drawn) [SFN, sulforaphane, reference compound] | 12.9 ± 4.2 µM | 1.7±0.4 | 10.6 ± 2.1 µM | 1.7 ± 0.2 | 6.3 ± 0.2 µM | 2.6±0.3 | 16.6 ± 2.4 µM | – | – | – | – | – | – | – | – | – | – | – | – |
| N.N.[Cl][Pt][Cl] [Cisplatin, reference compound] | – | – | – | – | – | – | – | 2.2 ± 1.1 µM | 13.5 ± 2.7 µM | 1.6 ± 0.5 µM | 2.1 ± 0.7 µM | – | – | – | – | – | – | – | – |
| CSCCCN=C=S [Compound 4, (3-isothiocyanatopropyl)(methyl)sulfane, reference compound] | – | – | – | – | – | – | – | – | – | – | – | 31.6 ± 5.7 µM | 31.1 ± 7.6 µM | 14.4 ± 1.1 µM | 43.9 ± 3.2 µM | 12 µM | 9 µM | 8.9 µM | – |
| CC[S@@+]([O-])[C@H]1O[C@H](COC(C)=O)[C@@H](OC(C)=O)[C@H](N=C=S)[C@H]1OC(C)=O [(RS)-17α, Ethyl 2,4,6-tri-O-acetyl-3-isothiocyanato-1,3-dideoxy-1[(R)-sulfinyl]-α-D-glucopyranse] | 113 ± 39.2 µM | > 1.1 | 108 ± 25.7 µM | > 1.1 | 65.6 ± 13.3 µM | > 1.6 | > 100 µM | – | – | – | – | – | – | – | – | – | 50.3 µM | 38.1 µM | 41.2 µM |
| CC(=O)OC[C@H]1O[C@H](S(=O)(=O)c2ccccc2)[C@H](OC(C)=O)[C@@H](N=C=S)[C@@H]1OC(C)=O [Compound 21α, Phenyl 2,4,6-tri-O-acetyl-3-isothiocyanato-1,3-dideoxy-1-sulfonyl-α-D-glucopyranose] | – | 2.0±0.3 | – | 1.9±0.2 | – | 2.4±0.4 | – | – | – | – | – | 22.9 ± 5.9 µM | 22.9 ± 3.7 µM | 18.5 ± 0.6 µM | 45 ± 8.9 µM | – | – | – | – |
| CC(=O)OC[C@H]1O[C@@H](Sc2ccccc2)[C@H](OC(C)=O)[C@@H](N=C=S)[C@@H]1OC(C)=O [Compound 15β, Phenyl 2,4,6-tri-O-acetyl-3-isothiocyanato-1,3-dideoxy-1-thio-β-D-glucopyranoside] | 30.2 ± 9.5 µM | 1.1±0.0 | 32.2 ± 10.2 µM | 1.3±0.1 | 27.1 ± 8.7 µM | 1.2±0.1 | 32.2 ± 10.2 µM | – | – | – | – | – | – | – | – | – | – | – | – |
